Series [1] concerns the target T1, 5-hydroxytryptamine receptor 2C (Homo sapiens, UniProt P28335).
T1 sequence (P28335 whole entry): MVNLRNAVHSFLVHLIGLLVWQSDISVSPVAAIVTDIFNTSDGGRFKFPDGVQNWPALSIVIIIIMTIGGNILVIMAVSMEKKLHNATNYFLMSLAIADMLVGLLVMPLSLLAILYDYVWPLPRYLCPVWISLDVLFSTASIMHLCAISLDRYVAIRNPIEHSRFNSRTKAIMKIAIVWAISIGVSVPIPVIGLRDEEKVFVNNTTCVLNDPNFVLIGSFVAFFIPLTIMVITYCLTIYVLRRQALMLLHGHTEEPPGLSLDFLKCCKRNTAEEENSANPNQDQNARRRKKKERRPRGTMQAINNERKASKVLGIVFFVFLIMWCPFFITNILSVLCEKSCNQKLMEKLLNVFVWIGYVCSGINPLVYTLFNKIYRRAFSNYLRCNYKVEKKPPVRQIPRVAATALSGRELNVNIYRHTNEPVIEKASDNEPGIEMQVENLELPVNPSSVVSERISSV
Briefly: Displacement of [3H]mesulergine from human 5-HT2C receptor expressed in human tsA201 cells after 1 hr by scintillation counting analysis. The format is cell-based. Background: Loss of bound radioactivity is the signal in a displacement assay; it reports binding, not function.

The target of series [2] is T2, 5-hydroxytryptamine receptor 6 (Homo sapiens, UniProt P50406). Briefly: Displacement of [3H]LSD from human 5-HT6 receptor expressed in hamster BHK cells after 60 mins by scintillation counting analysis. The class given is cell-based.
T2 sequence (P50406 whole entry): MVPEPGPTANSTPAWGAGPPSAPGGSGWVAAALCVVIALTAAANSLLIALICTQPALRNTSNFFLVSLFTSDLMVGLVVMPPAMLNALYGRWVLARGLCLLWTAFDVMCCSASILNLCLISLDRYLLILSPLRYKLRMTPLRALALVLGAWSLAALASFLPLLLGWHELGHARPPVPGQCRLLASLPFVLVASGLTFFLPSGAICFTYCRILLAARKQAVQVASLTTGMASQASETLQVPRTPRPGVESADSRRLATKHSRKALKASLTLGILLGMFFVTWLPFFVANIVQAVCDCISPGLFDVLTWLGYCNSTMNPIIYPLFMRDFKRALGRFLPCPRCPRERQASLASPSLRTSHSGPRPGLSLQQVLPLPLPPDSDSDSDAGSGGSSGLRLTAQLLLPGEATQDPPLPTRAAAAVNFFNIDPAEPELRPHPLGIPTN
The target in series [3] is T3, D(2) dopamine receptor (Homo sapiens, UniProt P14416). Briefly: Displacement of [3H]raclopride from human dopamine D2L receptor expressed in CHOK1a cell membrane after 180 mins by scintillation counting analysis. The class given is cell membranes.
T3 sequence (P14416 whole entry): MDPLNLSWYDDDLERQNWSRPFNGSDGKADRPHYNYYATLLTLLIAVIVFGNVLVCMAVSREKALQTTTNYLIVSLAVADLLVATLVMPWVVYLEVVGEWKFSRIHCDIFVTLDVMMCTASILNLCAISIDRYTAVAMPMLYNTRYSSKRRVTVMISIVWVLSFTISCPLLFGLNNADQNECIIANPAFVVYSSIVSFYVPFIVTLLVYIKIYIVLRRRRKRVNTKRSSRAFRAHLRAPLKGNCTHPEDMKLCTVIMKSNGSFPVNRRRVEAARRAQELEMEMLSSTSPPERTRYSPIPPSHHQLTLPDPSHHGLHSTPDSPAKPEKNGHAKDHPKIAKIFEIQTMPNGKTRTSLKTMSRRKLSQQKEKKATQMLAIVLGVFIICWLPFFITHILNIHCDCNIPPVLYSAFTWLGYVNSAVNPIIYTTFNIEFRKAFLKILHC
The target in series [4] is T3, D(2) dopamine receptor. Briefly: Intrinsic activity at human dopamine D2L receptor expressed in CHOK1a cell membrane assessed as [125I]-cAMP accumulation after 20 mins. The class given is functional, cell-based.
Series [5] deals with T2, 5-hydroxytryptamine receptor 6. Briefly: Displacement of [3H]LSD from human 5-HT6 receptor expressed in human HeLa cells after 1 hr by scintillation spectroscopic analysis. The class given is cell-based.
Series [6] shares this target. Briefly: Antagonist activity at human 5-HT6 receptor expressed in CHO cells assessed as reduction in serotonin-induced cAMP accumulation after 30 mins by HTRF assay. The class given is functional, cell-based. (In general: cAMP levels reflect the balance of adenylyl cyclase and phosphodiesterase activity.)
Series [7] in a line: Clearance in human. The class given is ADME, organism-based. Conditions: in vivo.
In another series the test system is tsA201. Briefly: Selectivity ratio of Ki for human 5-HT2C receptor expressed in human tsA201 cells to Ki for human 5-HT6 receptor expressed in hamster BHK cells. The class given is cell-based.
The target of series [8] is T1, 5-hydroxytryptamine receptor 2C. Briefly: Displacement of [3H]5-HT from 5-HT2C receptor (unknown origin) expressed in hamster AV12 cells. The format is cell-based.

The source made the active and inactive calls. No cut-off for these calls is given here.

Regarding `O=S(=O)(c1cccc(Cl)c1)n1cc2c3c(cccc31)N1CCNCC1C2` (configuration not stated), the Ki in series [1] amounted to 340 nM; in series [2] it was 47 nM.

In the case of `c1cc2c3c(c[nH]c3c1)CC1CN(CC3CCCCC3)CCN21` (configuration not stated), the Ki on D(2) dopamine receptor [3] (read-out: Ki) amounted to 54 nM. In addition, at D(2) dopamine receptor [4], the Intrinsic activity came to 95.

On to `O=S(=O)(c1ccc(Cl)cc1)n1cc2c3c(cccc31)N1CCNCC1C2` (configuration not stated), for which the figures for the Ki in [1] and in series [2] were 1200 nM and 184 nM, respectively.

Turning to `CNc1cc(NS(=O)(=O)c2ccc(N)cc2)cc(NC)n1`, in [5] (read-out: pKi (converted)), the Ki was 12.3 nM.

With `CN1C[C@@H](NS(=O)(=O)N(C)C)C[C@@H]2c3cccc4c3c(cn4C)C[C@H]21` [MESULERGINE], the Ki in [5] (read-out: Ki) came out at 776 nM.

`COc1ccccc1S(=O)(=O)n1cc2c3c(cccc31)N1CCNCC1C2` (configuration not stated): the Ki in series [1] was 870 nM; in series [2], 26 nM.

In the case of `COc1cccc(S(=O)(=O)n2cc3c4c(cccc42)N2CCNCC2C3)c1` (configuration not stated), the Ki in [1] came out at 370 nM; in [2], 24 nM.

Turning to `Cc1ccccc1S(=O)(=O)n1cc2c3c(cccc31)N1CCNCC1C2` (configuration not stated), the Ki in series [1] was 470 nM; in series [2] it was 21 nM.

Regarding `c1ccc(-c2ccccc2CN2CCN3c4cccc5[nH]cc(c45)CC3C2)cc1` (configuration not stated), the Ki on D(2) dopamine receptor [3] (read-out: Ki) was 450 nM; on D(2) dopamine receptor [3] (read-out: pKi (converted)) it was 200 nM.

Turning to `c1cc2c3c(c[nH]c3c1)CC1CNCCN21` (configuration not stated), the Ki at D(2) dopamine receptor [3] (read-out: Ki) was found to be 2100 nM.

As for `CCN1CCN2c3cccc4[nH]cc(c34)CC2C1` (configuration not stated), at D(2) dopamine receptor [3] (read-out: Ki), the Ki amounted to 140 nM.

In the case of `CC(C)CN1CCN2c3cccc4[nH]cc(c34)CC2C1` (configuration not stated), the Ki at D(2) dopamine receptor [3] (read-out: Ki) was found to be 310 nM.

On to `c1ccc(CN2CCN3c4cccc5[nH]cc(c45)CC3C2)cc1` (configuration not stated), for which the Ki at D(2) dopamine receptor [3] (read-out: Ki) turned out to be 130 nM. The Intrinsic activity on D(2) dopamine receptor [4] turned out to be 51.

`O=S(=O)(c1ccccc1)n1cc2c3c(cccc31)N1CCNCC1C2` (configuration not stated): the Ki in series [1] was 280 nM; in [2], 9 nM.

With `Cc1ccc(S(=O)(=O)n2cc3c4c(cccc42)N2CCNCC2C3)cc1` (configuration not stated), the Ki is 780 nM in series [1] and 96 nM in series [2].

On to `O=S(=O)(c1ccc(F)cc1)n1cc2c3c(cccc31)N1CCNCC1C2` (configuration not stated), for which the Ki in series [1] was found to be 1100 nM; in series [2], 29 nM.

`CCCCN1CCN2c3cccc4[nH]cc(c34)CC2C1` (configuration not stated): at D(2) dopamine receptor [3] (read-out: Ki), the Ki was 110 nM.

In series [1], `O=S(=O)(c1ccccc1Cl)n1cc2c3c(cccc31)N1CCNCC1C2` (configuration not stated) came in with a Ki of 460 nM.

For `O=S(=O)(c1ccccc1)c1cnc2c(N3CCNCC3)cccc2c1`, in series [6], the result was Active.

Turning to `CCCCCN1CCN2c3cccc4[nH]cc(c34)CC2C1` (configuration not stated), the Ki on D(2) dopamine receptor [3] (read-out: Ki) worked out at 98 nM.

As for `O=S(=O)(c1ccccc1F)n1cc2c3c(cccc31)N1CCNCC1C2` (configuration not stated), the Ki in [1] stood at 350 nM.

As for `CN1CCN2c3cccc4[nH]cc(c34)CC2C1` (configuration not stated), the Ki at D(2) dopamine receptor [3] (read-out: Ki) turned out to be 660 nM.

Usually clearance stands for a measure of how efficiently the substance is removed, as volume per time. For the compound `c1ccc(-c2cccc(CN3CCN4c5cccc6[nH]cc(c56)CC4C3)c2)cc1` (configuration not stated), the Ki is 0.65 nM at D(2) dopamine receptor [3] (read-out: Ki) and 0.229 nM on D(2) dopamine receptor [3] (read-out: pKi (converted)). For the same compound, at D(2) dopamine receptor [4], the Intrinsic activity amounted to 35. In [7], this compound showed a clearance of 65 mL/min/kg.

On to `Cc1cccc(S(=O)(=O)n2cc3c4c(cccc42)N2CCNCC2C3)c1` (configuration not stated), for which the Ki is 460 nM in series [1] and 24 nM in series [2].

With `O=S(=O)(c1cccc(F)c1)n1cc2c3c(cccc31)N1CCNCC1C2` (configuration not stated), in the series with tsA201, the Ratio Ki came out at 250. The Ki in series [1] is 240 nM; in series [2], 0.75 nM. Moreover, the outcome in series [6] was Active. The same compound had a clearance in series [7] of 13.3 mL/min/kg.

For the compound `Fc1ccc2c(CCNCc3cccc(OCC(F)(F)C(F)F)c3)c[nH]c2c1` [IDALOPIRDINE], the Ki in [8] turned out to be 250 nM.

As to `COc1ccc(NS(=O)(=O)c2sc3ccc(Cl)cc3c2C)cc1N1CCNCC1`, the Ki in series [8] is 770 nM.

For `CCCN1CCN2c3cccc4[nH]cc(c34)CC2C1` (configuration not stated), the Ki at D(2) dopamine receptor [3] (read-out: Ki) came out at 570 nM.

In the case of `COc1ccc(S(=O)(=O)n2cc3c4c(cccc42)N2CCNCC2C3)cc1` (configuration not stated), the Ki turned out to be 2900 nM in series [1] and 168 nM in [2].

Turning to `CC(C)CCN1CCN2c3cccc4[nH]cc(c34)CC2C1` (configuration not stated), the Ki on D(2) dopamine receptor [3] (read-out: Ki) stood at 24 nM. Moreover, on D(2) dopamine receptor [4], the Intrinsic activity was 96.

For the compound `c1ccc(-c2ccc(CN3CCN4c5cccc6[nH]cc(c56)CC4C3)cc2)cc1` (configuration not stated), the Ki at D(2) dopamine receptor [3] (read-out: Ki) was 140 nM.

The values above are taken from ChEMBL document CHEMBL3286112, “Novel aza-analogous ergoline derived scaffolds as potent serotonin 5-HT₆ and dopamine D₂ receptor ligands” (J Med Chem, 2014).
